From US20090226494A1, “PATHOGEN - CONTROLLING PRODUCTS” (priority 2005, published 2009) come the findings set out here.

The test system of data set [1] is A431 human skin cell line. In words: Hand gel cytotoxicity, SRB assay. Type of data set: cell-based. The settings on record: 10% concentration (highest), 24 hours. On the procedure: Methods: The human squamous epithelial cell line A431 was cultured in RPMI 1640 medium supplemented with 10% FCS, 2 g/L sodium bicarbonate and 2 mM L-glutamine (complete medium), in 75 cm^2 tissue culture flasks in a humidified incubator at 37° C. with a 5% CO2 in air atmosphere. For the cytotoxicity experiments, A431 cells were plated into the wells of flat-bottom 96 well plates at 5×10^4 cells per well in 200 μl of complete medium and allowed to grow to confluence. On the day of the experiment the depleted culture medium was aspirated and replaced with 100 μl of fresh complete medium. Samples of the hand gels were diluted in complete medium to double the concentrations shown in the Figure and 100 μl of each samples was added to the cells which were then cultured for a further 24 hours. After microscopic examination, the cells were fixed and stained to quantitatively determine cytotoxicity as described below. The sulforhodamine B (SRB) cytotoxicity assay was developed and validated at the National Cancer Institute. […] After washing twice with tap water the remaining stain was dissolved in 10 mM Tris base and the optical density (O.D.) of the wells was measured on a Dynatech Multiplate ELISA reader at 540 nm. The percent cell survival was calculated by dividing the test O.D. by control O.D. and multiplying by 100.

A further data set has as its system MRSA. Description: Time kill curves in RPMI-1460 medium. The format is cell-based, Staphylococcus aureus. The settings on record: 20 and 150 ppm.
The next data set concerns ACCB. The settings on record: 40 and 150 ppm.
Another data set relates to U937 cells. In words: Sulforhodamine (SRB) cytotoxicity assay and microscopy. The settings on record: 24 and 48 hours. The format is cell-based, human. The source says: (§1) The three copper-containing antimicrobial solutions—CuPC33, CuAL42 and CuWB50—were provided and each contained 30.43 g/L of copper ion. […] Two human cell lines were used for this example: HT-29, an intestinal epithelial cell line, and U937, a monocytic lymphoma. […] After examination by microscopy the cells were then fixed and stained to quantitatively determine cytotoxicity using a sulforhodamine (SRB) cytotoxicity assay, developed and validated at the National Cancer Institute. […] All test cultures were in triplicate.

A further data set deals with HT-29 cells. The data set is described as above. The settings on record: 24 and 48 hours. The format is cell-based, human.
From the text: as §1

As to `CCO` [ethanol], the “reduction of cell survival / cells killed” value in data set [1] is “around 50%”.
Regarding `O=S(=O)([O-])[O-].[Cu+2]` [copper sulphate], the “activity in time kill curves” value in the data set on MRSA was “some activity but the bacteria recovered”; in the data set on ACCB, “little initial activity but the bacteria recovered”. The cytotoxicity entry with U937 cells (1-100 ppm, 5% or 25% FCS) is “not significantly cytotoxic”; with U937 cells (1000 ppm), “very toxic”; with HT-29 cells (1-100 ppm, 5% or 25% FCS) it was “not significantly cytotoxic”; in the data set on HT-29 cells (1000 ppm), “very toxic”.
